Results as given in patent US20260325561A1, “4'-SUBSTITUTED NUCLEOSIDES AND NUCLEOTIDES AS ANTIVIRAL AGENTS” (THE SCRIPPS RESEARCH INSTITUTE, priority 2023, published 2026).

Legend:
in vitro [1] = conditions: human, h1 hela cells
in vitro [2] = conditions: human, hela-ace2 cells
DENV-2 = test: microbe, parasite or virus in culture; format: cell-based, DENV-2 16681; conditions: Dengue virus, DENV2, HepG2, 24 h, read-out: DENV-2 / HepG2 EC50
HRV 14 = test: microbe, parasite or virus in culture; format: cell-based, Human Rhinovirus 14 strain 1059; conditions: Rhinovirus B, H1-HeLa, 48 h, read-out: HRV / H1 HeLa B 14 EC50
in vitro [3] = conditions: human, hep2 cells
SARS-CoV-2 = test: microbe, parasite or virus in culture; format: cell-based, SARS-CoV-2 strain USA-WA1/2020; conditions: Severe acute respiratory syndrome coronavirus 2, HeLa-ACE2, 24 h, read-out: SARS-CoV-2 / HeLa-ACE2 EC50
in vitro [4] = conditions: human, hepg2 cells
RSV A2 = test: microbe, parasite or virus in culture; format: cell-based; conditions: human respiratory syncytial virus, HEp-2, 72 h, read-out: RSV A2 / Hep2 EC50

SMILES | CC50 (in vitro [1]) [µM] | CC50 at 24 h (in vitro [2]) [µM] | EC50 (DENV-2) [µM] | EC50 (HRV 14) [µM] | CC50 (in vitro [3]) [µM] | EC50 (SARS-CoV-2) [µM] | CC50 at 72 h (in vitro [4]) [µM] | EC50 (RSV A2) [µM]
C[C@]1(Cl)[C@H](n2cnc3c(=O)[nH]c(N)nc32)O[C@](F)(CO)[C@H]1O [Example 62, 2-amino-9-((2R,3R,4R,5S)-3-chloro-5-fluoro-4-hydroxy-5-(hydroxymethyl)-3-methyltetrahydrofuran-2-yl)-1,9-dihydro-6H-purin-6-one] | 10 to 99 | > 99 | 0.1 to 1 | > 10 | 10 to 99 | > 10 | 10 to 99 | > 10
CCOc1nc(N)nc2c1ncn2[C@@H]1O[C@](F)(COP(=O)(N[C@@H](C)C(=O)OC(C)C)Oc2ccccc2)[C@@H](O)[C@@]1(C)Cl (stereo partly drawn) [Example 64, isopropyl ((((2S,3R,4R,5R)-5-(2-amino-6-ethoxy-9H-purin-9-yl)-4-chloro-2-fluoro-3-hydroxy-4-methyltetrahydrofuran-2-yl)methoxy)(phenoxy)phosphoryl)-L-alaninate] | 10 to 99 | 10 to 99 | 1 to 10 | > 10 | 10 to 99 | > 10 | 10 to 99 | > 10
C[C@H](NP(=O)(OC[C@@]1(F)O[C@@](C#N)(c2cnc3c(N)ncnn23)[C@H](O)[C@@H]1O)Oc1cccc2ccccc12)C(=O)OCC(C)(C)C (stereo partly drawn) [Example 65, neopentyl ((((2S,3S,4R,5R)-5-(4-aminoimidazo[2,1-f][1,2,4]triazin-7-yl)-5-cyano-2-fluoro-3,4-dihydroxytetrahydrofuran-2-yl)methoxy)(naphthalen-1-yloxy)phosphoryl)-L-alaninate] | 10 to 99 | 10 to 99 | 1 to 10 | > 10 | 10 to 99 | 1 to 10 | 1 to 10 | > 10
CCOc1nc(N)nc2c1ncn2[C@@H]1O[C@](F)(CO[P@@](=O)(N[C@@H](C)C(=O)OC(C)C)Oc2ccccc2)[C@@H](O)[C@]1(F)Cl [Example 67, isopropyl ((((2S,3R,4S,5R)-5-(2-amino-6-ethoxy-9H-purin-9-yl)-4-chloro-2,4-difluoro-3-hydroxytetrahydrofuran-2-yl)methoxy)(phenoxy)phosphoryl)-L-alaninate] | 10 to 99 | 10 to 99 | 1 to 10 | 1 to 10 | 10 to 99 | > 10 | 10 to 99 | > 10
CCOc1nc(N)nc2c1ncn2[C@@H]1O[C@](F)(CO)[C@@H](O)[C@]1(F)Br [Example 68, (2S,3R,4S,5R)-5-(2-amino-6-ethoxy-9H-purin-9-yl)-4-bromo-2,4-difluoro-2-(hydroxymethyl)tetrahydrofuran-3-ol] | 10 to 99 | > 99 | > 10 | > 10 | 10 to 99 | > 10 | 10 to 99 | > 10
C#C[C@]1(O)[C@H](n2ccc3c(NCCC)ncnc32)O[C@](F)(CO)[C@H]1O [Example 70, (2S,3S,4R,5R)-4-ethynyl-2-fluoro-2-(hydroxymethyl)-5-(4-(propylamino)-7H-pyrrolo[2,3-d]pyrimidin-7-yl)tetrahydrofuran-3,4-diol] | 10 to 99 | > 99 | > 10 | > 10 | 10 to 99 | > 10 | 10 to 99 | > 10
CSc1ncnc2c1ccn2[C@@H]1O[C@](F)(CO)[C@@H](O)[C@H]1O [Example 72, (2S,3S,4R,5R)-2-fluoro-2-(hydroxymethyl)-5-(4-(methylthio)-7H-pyrrolo[2,3-d]pyrimidin-7-yl)tetrahydrofuran-3,4-diol] | > 99 | 10 to 99 | 1 to 10 | > 10 | 10 to 99 | 1 to 10 | 10 to 99 | > 10
